Test results as given in patent US8809360B2, “Use of a pyridine compound for the preparation of a medicament for the treatment of skin lesions” (Mitsubishi Tanabe Pharma Corporation, priority 2004, dated 2014).
“And” between values parts separate entries of the source, which are not always exact repeats. Equal values may be shown once.

Test system: Human Dermal Microvascular Endothelial Cell (HDMEC)
Experiment: Promoting activity in vitro on human dermal microvascular endothelial cell (HDMEC) proliferation
Assay type: cell-based
Details: positive control: bFGF solution 0.1 μg/mL medium
Description: The wound healing-promoting activity of test compounds were investigated in terms of the promotion activity on HDMEC proliferation in the following manner. As a HDMEC, normal adult dermal microvascular endothelial cells (Hybridoma (1996): Vol. 15 (4), pp 279-288) were used in this study.
A suspension of HDMEC mentioned above (2×10^4 cells/mL; Cryo HMVEC-Ad; trademark registered by Cambrex Inc.) were seeded on 48-well plate (250 μL/well). The cells were cultured in a proliferation medium (BletKit EGM-2-MV; trademark registered by Cambrex Inc.) for one day. After substituting an assay medium (450 μL, bFGF-, EGF- and VEGF-free BletKit EGM-2-MV; trademark registered by Cambrex Inc.) for the proliferation medium, a dimethylsulfoxide solution of the test compound (0.1 v/v %, 50 μL) was added to each well and the cells were cultured for 96 hours. After culturing, the assay medium was removed by aspiration and the residual cells were suspended in Isoton II solution (500 μL; Beckmann-Coulter Ltd.) containing 0.05% trypsin and 0.02% ethylenediaminetetraacetic acid. The suspension was diluted (11-fold) with Isoton II solution (5 mL) and the number of cells were counted by Coulter-Counter Z1 (Beckmann-Coulter Ltd.).
As a negative control group, HDMEC was cultured in the same manner, but in the absence of the test compound, as described above. […]

## Positive control: bFGF solution (0.1 μg/mL medium) used instead of the test compound solution; basic fibroblast growth factor
  Number of cells after 96 hours: 1.31 × 10^4 cells and 1.81 × 10^4 cells and 2.03 × 10^4 cells
Listed as positive control
  Number of cells after 96 hours: 1.95 × 10^4 cells
